Holding throughout (format): cell-based
The subject of one assay is RSV strain A2. As to the kind of experiment: microbe, parasite or virus in culture. To be noted: Table 3, HEp-2 cells, RSV A2, 4 days, read-out: RSV HEp-2 EC50. Summed up:
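Cytopathic-effect protection assay: HEp-2 cells (50,000/mL) infected with pre-titered RSV A2 onto 3-fold serial compound dilutions, incubated 4 days at 37° C. Cell viability read by CellTiter-Glo luminescence; percent inhibition derived against 0% and 100% virus-inhibition controls.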

Another assay deals with RSV A2. Put plainly: RSV NHBE EC50 (RSV A2 antiviral assay in NHBE cells). The note with it: Table 3, NHBE cells, RSV A2, 4 days, read-out: RSV NHBE EC50. Summed up:
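Step 1: seed NHBE cells (7,500/well, BEGM) overnight. Step 2: add 3-fold diluted compound, DMSO 0.05%. Step 3: infect with RSV A2, 1×10^4.5 TCID/mL; incubate 4 days, 37° C. Step 4: CellTiter-Glo luminescence.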

Another assay deals with HRV16. Put plainly: HRV16 HeLa EC50 (cytopathic effect in H1-HeLa cells). The procedure, abridged:
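Read-out is luminescent cell viability (CellTiter-Glo) after 96 h of infection at 33 °C, scaled between uninfected and infected-untreated wells. Before infection with titrated virus, compounds went onto H1-HeLa cells as triplicate 3-fold dilution series.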
For orientation: Cytopathic effects are the visible damage that an infection or toxin causes in cultured cells.

Another assay deals with DENV2 replicon. Put plainly: DENV-2 Huh-7 Rep EC50 (replicon luminescence). The procedure, abridged: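 EC50 derived from luminescence dose-response, normalised to DMSO-only 0% inhibition wells, after 1.5 h with EnduRen substrate. Compounds were first exposed for 48 h at 37° C to DENV2 replicon Huh-7 cells (5,000/well).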
In general terms: Replicon systems follow genome replication, usually without infectious particles.

Where [1] appears, read: Table 3; H1-HeLa cells, 96 h; read-out: HRV16 HeLa EC50.
Where [2] appears, read: Table 3, Huh-7 DENV2 replicon cells, 48 hours, read-out: DENV-2 REP Huh7 EC50.
[3] abbreviates: human respiratory syncytial virus, HEp-2, 96 h.
Setting [4] is: human respiratory syncytial virus, NHBE, 96 h.
[5] abbreviates: 96 h, Table 3; H1-HeLa cells, 96 h; read-out: HRV16 HeLa EC50.
Where [6] appears, read: Dengue virus, DENV2, Huh-7, 48 h, read-out: DENV-2 REP Huh7 EC50.
Where [7] appears, read: Dengue virus, DENV2, Huh-7, 48 h, read-out: DENV-2 REP Huh7 EC50, Table 3, Huh-7 DENV2 replicon cells, 48 hours.

Read-outs that look alike come from different tables or passages of the source.

The term EC50 denotes the concentration needed to bring the measured effect to its halfway point. For `CCCOC(=O)[C@H](C)NP(=O)(OC[C@@]1(C#N)O[C@@H](c2ccc3c(N)ncnn23)[C@H](OC(=O)C(C)C)[C@@H]1OC(=O)C(C)C)Oc1ccccc1` (single isomer, unassigned) [Example 191], the EC50 with RSV strain A2 was determined as 23 nM; in the assay with RSV A2 it was 8 nM; with HRV16 (setting [1]), 64 nM; in the assay on DENV2 replicon (setting [2]), 2700 nM.
As to `COC(=O)[C@H](C)N[P@](=O)(OC[C@@]1(C#N)O[C@@H](c2ccc3c(N)ncnn23)[C@H](OC(=O)[C@@H](C)OC)[C@@H]1OC(=O)[C@@H](C)OC)Oc1ccccc1` [Example 166, (2R,3S,4S,5S)-5-(4-aminopyrrolo[2,1-f][1,2,4]triazin-7-yl)-2-cyano-2-((((S)-(((S)-1-methoxy-1-oxopropan-2-Yl)amino)(phenoxy)phosphoryl)oxy)methyl) tetrahydrofuran-3,4-diyl (2R,2′R)-bis(2-methoxypropanoate)], the concentration for a half-maximal effect (EC50) is 157 nM with RSV strain A2 (setting [3]), 112 nM in the assay with RSV A2 (setting [4]), 1660 nM in the assay with HRV16 (setting [5]) and 21700 nM in the assay on DENV2 replicon (setting [6]).
Consider `CCC(=O)O[C@H]1[C@H](c2ccc3c(N)ncnn23)O[C@](C#N)(COP(=O)(N[C@@H](C)C(=O)OC(C)C)Oc2ccc(OCCOC)cc2)[C@H]1OC(=O)CC` (stereo partly drawn) [Example 215, (2R,3S,4S,5S)-5-(4-aminopyrrolo[2,1-f][1,2,4]triazin-7-yl)-2-cyano-2-((((((S)-1-isopropoxy-1-oxopropan-2-yl)amino)(4-(2-methoxyethoxy)phenoxy)phosphoryl)oxy)methyl)tetrahydrofuran-3,4-diyl dipropionate], for which the EC50 with RSV strain A2 (setting [3]) came to 378 nM; in the assay on RSV A2 (setting [4]), 142 nM; in the assay on HRV16 (setting [5]), 1020 nM; in the assay with DENV2 replicon (setting [6]), 27200 nM.
On to `CCC(=O)O[C@H]1[C@H](c2ccc3c(N)ncnn23)O[C@](C#N)(CO[P@@](=O)(N[C@@H](C)C(=O)OCC2CCOCC2)Oc2ccccc2)[C@H]1OC(=O)CC` [Example 108], for which the EC50 with RSV strain A2 came out at 217 nM; in the assay with RSV A2 it was 6 nM; with HRV16 (setting [1]) it was 385 nM; in the assay with DENV2 replicon (setting [2]) it was 39300 nM.
In the case of `CC(C)OC(=O)[C@H](C)N[P@](=O)(OC[C@@]1(C#N)O[C@@H](c2ccc3c(N)ncnn23)[C@H](OC(=O)CN2CCOCC2)[C@@H]1OC(=O)CN1CCOCC1)Oc1ccccc1` [Example 216, (2R,3S,4S,5S)-5-(4-aminopyrrolo[2,1-f][1,2,4]triazin-7-yl)-2-cyano-2-((((S)-(((S)-1-isopropoxy-1-oxopropan-2-yl)amino)(phenoxy)phosphoryl)oxy)methyl) tetrahydrofuran-3,4-diyl bis(2-morpholinoacetate)], the EC50 in the assay on RSV strain A2 (setting [3]) is 262 nM; in the assay on RSV A2 (setting [4]), 3870 nM; in the assay on HRV16 (setting [5]), 3500 nM; in the assay with DENV2 replicon (setting [6]), 31200 nM.
As for `CSCCOP(=O)(N[C@@H](C)C(=O)OC(C)C)OC[C@@]1(C#N)O[C@@H](c2ccc3c(N)ncnn23)[C@H](OC(=O)C(C)C)[C@@H]1OC(=O)C(C)C` (stereo partly drawn) [Example 213, (2R,3S,4S,5S)-5-(4-aminopyrrolo[2,1-f][1,2,4]triazin-7-yl)-2-cyano-2-((((((S)-1-isopropoxy-1-oxopropan-2-yl)amino)(2-(methylthio)ethoxy)phosphoryl)oxy)methyl) tetrahydrofuran-3,4-diyl bis(2-methylpropanoate)], the EC50 was 11800 nM in the assay with RSV strain A2 (setting [3]), 2250 nM in the assay with RSV A2 (setting [4]), 13100 nM with HRV16 (setting [5]) and 23000 nM in the assay with DENV2 replicon (setting [7]).
In the case of `CCC(=O)O[C@H]1[C@H](c2ccc3c(N)ncnn23)O[C@](C#N)(CO[P@](=O)(N[C@@H](C)C(=O)OCC2CCN(CC(F)(F)F)CC2)Oc2ccccc2)[C@H]1OC(=O)CC` [Example 117], the EC50 in the assay with RSV strain A2 worked out at 113 nM; in the assay with RSV A2 it was 20 nM; in the assay on HRV16 (setting [1]), 462 nM; in the assay with DENV2 replicon (setting [2]), 19100 nM.
As for `CO[C@@H](C)C(=O)O[C@H]1[C@H](c2ccc3c(N)ncnn23)O[C@](C#N)(CO[P@@](=O)(N[C@@H](C)C(=O)OC(C)C)Oc2ccccc2)[C@H]1OC(=O)[C@H](C)OC` [Example 158, (2R,3S,4S,5S)-5-(4-aminopyrrolo[2,1-f][1,2,4]triazin-7-yl)-2-cyano-2-((((S)-(((S)-1-isopropoxy-1-oxopropan-2-yl)amino)(phenoxy)phosphoryl)oxy)methyl) tetrahydrofuran-3,4-diyl (2S,2'S)-bis(2-methoxypropanoate)], the EC50 in the assay with RSV strain A2 (setting [3]) is 139 nM; in the assay on RSV A2 (setting [4]), 52 nM; in the assay with HRV16 (setting [5]) it was 731 nM; with DENV2 replicon (setting [6]), 15700 nM.
For the molecule `COCCOP(=O)(N[C@@H](C)C(=O)OC(C)C)OC[C@@]1(C#N)O[C@@H](c2ccc3c(N)ncnn23)[C@H](OC(=O)C(C)C)[C@@H]1OC(=O)C(C)C` (stereo partly drawn) [Example 214, (2R,3S,4S,5S)-5-(4-aminopyrrolo[2,1-f][1,2,4]triazin-7-yl)-2-cyano-2-((((((S)-1-isopropoxy-1-oxopropan-2-yl)amino)(2-methoxyethoxy)phosphoryl)oxy)methyl) tetrahydrofuran-3,4-diyl bis(2-methylpropanoate)], the EC50 is above 41700 nM in the assay on RSV strain A2 (setting [3]), above 3890 nM in the assay with RSV A2 (setting [4]), 31300 nM in the assay on HRV16 (setting [5]) and above 50000 nM with DENV2 replicon (setting [7]).
In the case of `CCCOC(=O)[C@H](C)NP(=O)(OC[C@@]1(C#N)O[C@@H](c2ccc3c(N)ncnn23)[C@H](OC(=O)CC)[C@@H]1OC(=O)CC)Oc1ccccc1` (mixture of isomers) [Example 187], the EC50 was 24 nM in the assay with RSV strain A2 (setting [3]), 17 nM in the assay with RSV A2 (setting [4]), 88 nM with HRV16 (setting [5]) and 5930 nM in the assay with DENV2 replicon (setting [6]).
`CCCOC(=O)[C@H](C)NP(=O)(OC[C@@]1(C#N)O[C@@H](c2ccc3c(N)ncnn23)[C@H](OC(=O)C(C)C)[C@@H]1OC(=O)C(C)C)Oc1ccccc1` (single isomer, unassigned) [Example 192]: the EC50 stood at 29 nM in the assay on RSV strain A2, 45 nM in the assay on RSV A2, 101 nM with HRV16 (setting [1]) and 8670 nM in the assay with DENV2 replicon (setting [2]).
`CCC(=O)O[C@H]1[C@H](c2ccc3c(N)ncnn23)O[C@](C#N)(COP(=O)(N[C@@H](C)C(=O)OC(C)C)Oc2ccc(C[C@H](N)C(=O)OC)cc2)[C@H]1OC(=O)CC` (stereo partly drawn) [Example 217, (2R,3S,4S,5S)-2-((((4-((S)-2-amino-3-methoxy-3-oxopropyl)phenoxy)(((S)-1-isopropoxy-1-oxopropan-2-yl)amino)phosphoryl)oxy)methyl)-5-(4-aminopyrrolo[2,1-f][1,2,4]triazin-7-yl)-2-cyanotetrahydrofuran-3,4-diyl dipropionate]: the EC50 is 9840 nM in the assay with RSV strain A2 (setting [3]), 2060 nM in the assay on RSV A2 (setting [4]), 11900 nM in the assay with HRV16 (setting [5]) and above 50000 nM with DENV2 replicon (setting [6]).
As to `CCC(=O)O[C@H]1[C@H](c2ccc3c(N)ncnn23)O[C@](C#N)(COP(=O)(N[C@@H](C)C(=O)OC[C@H]2CC[C@H](N)CC2)Oc2ccccc2)[C@H]1OC(=O)CC` (stereo partly drawn) [Example 159, (2R,3S,4S,5S)-2-((((((S)-1-(((1r,4S)-4-aminocyclohexyl)methoxy)-1-oxopropan-2-yl)amino)(phenoxy)phosphoryl)oxy)methyl)-5-(4-aminopyrrolo[2,1-f][1,2,4]triazin-7-yl)-2-cyanotetrahydrofuran-3,4-diyl dipropionate], the EC50 with RSV strain A2 (setting [3]) was 7990 nM; in the assay with RSV A2 (setting [4]), 1550 nM; in the assay on HRV16 (setting [5]) it was 33100 nM; in the assay on DENV2 replicon (setting [6]) it was above 50000 nM.
On to `CC(=O)O[C@H]1[C@H](c2ccc3c(N)ncnn23)O[C@](C#N)(COP(=O)(N[C@@H](C)C(=O)OC2CCC2)Oc2ccccc2)[C@H]1OC(C)=O` (stereo partly drawn) [Example 198, (2R,3S,4S,5S)-5-(4-aminopyrrolo[2,1-f][1,2,4]triazin-7-yl)-2-cyano-2-((((((S)-1-cyclobutoxy-1-oxopropan-2-yl)amino)(phenoxy)phosphoryl)oxy)methyl) tetrahydrofuran-3,4-diyl diacetate], for which the EC50 worked out at 48 nM in the assay on RSV strain A2, 37 nM in the assay with RSV A2, 319 nM with HRV16 (setting [1]) and 6620 nM with DENV2 replicon (setting [2]).
As to `CCCCC(=O)O[C@H]1[C@H](c2ccc3c(N)ncnn23)O[C@](C#N)(COP(=O)(N[C@@H](C)C(=O)OCC)N[C@@H](C)C(=O)OCC)[C@H]1OC(=O)CCCC` [Example 194, (2R,3S,4S,5S)-5-(4-Aminopyrrolo[2,1-f][1,2,4]triazin-7-yl)-2-(((bis(((S)-1-ethoxy-1-oxopropan-2-yl)amino)phosphoryl)oxy)methyl)-2-cyanotetrahydrofuran-3,4-diyl dipentanoate], the EC50 in the assay with RSV strain A2 (setting [3]) is 391 nM; in the assay on RSV A2 (setting [4]), 529 nM; in the assay with HRV16 (setting [5]) it was 2090 nM; with DENV2 replicon (setting [7]), 30900 nM.

These data come from patent publication US12264173B2 (GILEAD SCIENCES, INC., priority 2020, dated 2025).
